Measured values: patent publication US6444684B1 (priority 1993, dated 2002)
Like-named read-outs stand apart in the source and are kept apart here.

Columns and labels:
[1] = tested on: 3LL = Lewis Lung Carcinoma Cells; conditions: 3LL = Lewis lung carcinoma cells, compared with normal NRKE cells
[2] = tested on: Melanoma cell lines; assay: NCI in vitro anticancer screen (SRB), melanoma subpanel; conditions: 48 hours exposure; average percent growth over the cell lines
Experimental: (§1) Compounds chosen for the program are initially tested in an in vitro anticancer screen. A total of fifty-five human tumor cell lines, derived from nine cancer types (lung, colon, melanoma, renal, ovarian, brain, prostate, breast and leukemia), are used in this screen. The tumor cells are inoculated over a series of standard 96-well microtiter plates on day 0. These cells are then preincubated on the microtiter plates for 24 hours. The test compounds are added to the wells in five 10-fold dilutions starting from the highest soluble concentration. Each compound is tested against every cell line in the panel. The compounds are incubated for 48 hours with the tumor cell lines. At the termination of the assay, the cells are fixed in situ, washed, and dried. Sulforhodamine B (SRB), a pink anionic dye that binds to the basic amino acids of trichloroacetic acid-fixed cells, is added. The cells are washed again, and the remaining dye is a function of the adherent cell mass. The bound stain is solubilized and measured spectrophotometrically. The data are entered from automatic reading devices into a computer for subsequent storage and analysis.
(§2) The measured effect of each test compound on the cell lines is calculated according to one or the other of the following two expressions:
(§3) If (Mean ODtest−Mean ODtzero)□0, then PG=100×(Mean ODtest−Mean ODtzero)/(Mean ODctrl−Mean ODtzero);
(§4) If (Mean ODtest−Mean ODtzero)<0, then PG=100×(Mean ODtest−Mean ODtzero)/Meantzero;
(§5) First, a data sheet is provided which lists, for each cell line, the Mean ODtzero, the Mean ODctrl, the Mean ODtest for each of the five concentrations, the calculated PGs for each concentration, and the response parameters G150, TGI, and LC50.
(§6) Third, mean graphs at each of the principal response parameters (GI50, TGI, and LC50) are provided. […] Since the bar scale is logarithmic, a bar two units to the right implies the compound achieved the response parameter (e.g., GI50) for the cell line at a concentration 1/100 the mean concentration required over all cell lines, and thus the cell line is unusually sensitive to that compound. Bars extending to the left correspondingly imply sensitivity less than the mean. Thus, the mean graphs facilitate visual scanning of data for potential patterns of selectivity for particular cell lines or for particular subpanels with respect to a selected response parameter.

[3] = tested on: CNS Cancer cell lines; assay: NCI in vitro anticancer screen (SRB), CNS cancer subpanel; conditions: 48 hours exposure; average percent growth over the cell lines
[4] = tested on: Leukemia cell lines; assay: NCI in vitro anticancer screen (SRB), leukemia subpanel; conditions: 48 hours exposure; average percent growth over the cell lines
Experimental: as §1, §2, §3, §4, §5, §6

[5] = tested on: Renal Cancer cell lines; assay: NCI in vitro anticancer screen (SRB), renal cancer subpanel; conditions: 48 hours exposure; average percent growth over the cell lines
Experimental: as §1, §2, §3, §4, §5, §6

[6] = tested on: Ovarian Cancer cell lines; assay: NCI in vitro anticancer screen (SRB), ovarian cancer subpanel; conditions: 48 hours exposure; average percent growth over the cell lines
Experimental: as §1, §2, §3, §4

[7] = NCI toxicity studies, maximum tolerated dose; conditions: mouse, in vivo; mice
Experimental: As a result of its performance in an initial and a repeat cancer screen, compound 55 has been selected for in vivo testing. Compound 55 was chosen primarily because of its selectivity for non-small cell lung cancer. To date, toxicity studies have been performed, and the maximum tolerated dose in mice has been determined to be 400 mg/kg.

[8] = tested on: H/1.2 = ras^H Transformed NRKE Cells; conditions: H/1.2 = ras^H transformed NRKE cells, compared with normal NRKE cells
[9] = tested on: 3LL = Lewis Lung Carcinoma Cells; assay: cells; conditions: Mus musculus
[10] = tested on: Colon Cancer cell lines; assay: NCI in vitro anticancer screen (SRB), colon cancer subpanel; conditions: 48 hours exposure; average percent growth over the cell lines
[11] = tested on: H/1.2 = ras^H Transformed NRKE Cells; assay: cells; conditions: Rattus norvegicus
[12] = tested on: N/4.2-NRKE transformed by the human ras^N gene; conditions: N/4.2 = ras^N transformed NRK cells, compared with normal NRKE cells
[13] = tested on: K/1 = ras^K Transformed NRKE Cells; conditions: for Differential Index K/1: K/1 = ras^K transformed NRKE cells, compared with normal NRKE cells
[14] = tested on: K/1 = ras^K Transformed NRKE Cells; assay: cells; conditions: Rattus norvegicus
[15] = tested on: Breast Cancer cell lines; assay: NCI in vitro anticancer screen (SRB), breast cancer subpanel; conditions: 48 hours exposure; average percent growth over the cell lines
Experimental: as §1, §2, §3, §4

[16] = in vitro
[17] = tested on: N/4.2-NRKE transformed by the human ras^N gene; assay: cells; conditions: N42, read-out: LC50 N/4.2
[18] = tested on: Non-Small Cell Lung Cancer cell lines; assay: NCI in vitro anticancer screen (SRB), non-small cell lung cancer subpanel; conditions: for Activity (Average PG for highest dose tested) Non-Small Cell Lung Cancer: 48 hours exposure, average percent growth over the cell lines
Experimental: as §1, §2, §3, §4, §5, §6

[19] = tested on: Prostate Cancer cell lines; assay: NCI in vitro anticancer screen (SRB), prostate cancer subpanel; conditions: 48 hours exposure; average percent growth over the cell lines
Experimental: as §1, §2, §3, §4

[20] = tested on: K/1-NRKE tumor (ras^K-transformed NRKE cells)
[21] = Solubility in dosing vehicle; assay type: physicochemical; conditions: 10 percent emulphor 620 in Dulbecco's phosphate buffered saline
Experimental: CY was dissolved in isotonic saline, 20 and 21 were dissolved in corn oil, and 1 was dissolved in 10 percent emulphor 620 in Dulbecco's phosphate buffered saline. […] Starting 1 day after tumor implantation, drugs were administered interperitoneally (IP) at the doses given in Table X. CY and compounds 20 and 21 were given once daily for 8 days. Compound 1 was administered in three doses per day at lower dose levels, and the animals were treated for 7 days. On day 10, tumor masses, percent inhibition of tumor growth, and weight changes were determined.

[22] = tested on: L. major; assay: L. major footpad infection in Balb/c mice; assay type: in vivo; conditions: 80 mg/kg/day intraperitoneally in corn oil for seven days
Experimental: Compound 1 dissolved in corn oil was administered intraperitoneally to Balb/c mice (Ball State University colony) at 80 mg/kg/day for seven days beginning one day prior to injection of 5×10^6 L. major promastigotes in medium 199 in the hind foot. Control mice received an equivalent amount of corn oil and L. major. Beginning on day 8, the thickness of the footpads top to bottom was measured using a vernier caliper. Footpad swelling indicates progression of the disease. The percent increase in footpad size was calculated as: [formula]
The percent increase in footpad size is for triplicate mice in the control group and duplicate mice in the treated group.

[23] = tested on: human tumor cells in hollow fibers; assay: NCI Hollow Fiber Assay for preliminary in vivo testing; conditions: combined IP+SC score
Experimental: For these assays, human tumor cells are cultivated in polyvinylidene fluoride (PVDF) hollow fibers, and a sample of each cell line is implanted into each of two physiologic compartments (intraperitoneal and subcutaneous) in mice. Each test mouse receives a total of 6 fibers (3 intraperitoneally and 3 subcutaneously) representing 3 distinct cancer cells lines. Three mice are treated with potential antitumor compounds at each of 2 test doses by the intraperitoneal route using a QD×4 treatment schedule. Vehicle controls consist of 6 mice receiving the compound diluent only. The fiber cultures are collected on the day following the last day of treatment. To assess anticancer effects, viable cell mass is determined for each of the cell lines using a formazan dye (MTT) conversion assay. From this, the % T/C can be calculated using the average optical density of the compound treated samples divided by the average optical density of the vehicle controls. In addition, the net increase in cell mass can be determined for each sample as a sample of fiber cultures are assessed for viable cell mass on the day of implantation into mice. Thus, the cytostatic and cytocidal capacities of the test compound can be assessed.
This represents a total of 4 experiments since each experiment contains 3 cell lines. […]

[24] = 120 h, read-out: LC50 3LL, Table VII, concentration giving 50% cell kill, 5 days exposure
[25] = read-out: LC50 3LL, second table headed TABLE VIII

Q: What does the source list for `COC(=O)c1nc(-c2ccc3c(n2)C(=O)C(N)=CC3=O)c2[nH]c3ccccc3c2c1C` [Compound 55, lavendamycin methyl ester, reference compound]?
A: Differential Index 3LL [1]: 0.4; Activity (Average PG for highest dose tested) Melanoma [2]: −53.0%; Activity (Average PG for highest dose tested) CNS Cancer [3]: −39.3%; Activity (Average PG for highest dose tested) Leukemia [4]: +30.0%; Activity (Average PG for highest dose tested) Renal Cancer [5]: −63.8%; Activity (Average PG for highest dose tested) Ovarian Cancer [6]: −43.5%; MTD [7]: 400 mg/kg; Differential Index H/1.2 [8]: 0.9; CC50 [9, 24]: 0.5 µM; CC50 ([9]; read-out: LC50 3LL, Table VIII): 0.5 µM; CC50 ([9]; read-out: LC50 3LL, Table XV (Example 51)): 0.25 µM; CC50 [9, 25]: 0.5 µM; Activity (Average PG for highest dose tested) Colon Cancer [10]: −20.0%; CC50 ([11]; 120 h, read-out: LC50 H/1.2, Table VII, concentration giving 50% cell kill, 5 days exposure): 0.1 µM; CC50 ([11]; read-out: LC50 H/1.2, Table VIII): 0.1 µM; CC50 ([11]; read-out: LC50 H/1.2, Table XV (Example 51)): 0.11 µM; CC50 ([11]; read-out: LC50 H/1.2, second table headed TABLE VIII): 0.1 µM; Differential Index N/4.2 [12]: 1.67; Differential Index K/1 [13]: 3.33; selective toxicity (Table IX) ([13]; ras^K cells versus normal cells): 0.5; CC50 ([14]; 120 h, read-out: LC50 K/1, Table VII, concentration giving 50% cell kill, 5 days exposure): 0.2 µM; CC50 ([14]; read-out: LC50 K/1, Table VIII): 0.2 µM; CC50 ([14]; read-out: LC50 K/1, Table XV (Example 51)): 0.03 µM; CC50 ([14]; read-out: LC50 K/1, second table headed TABLE VIII): 0.2 µM; Activity (Average PG for highest dose tested) Breast Cancer [15]: −43.8%; CC50 at 5 days [16]: 0.1 µM; CC50 [17]: 0.06 µM; Activity (Average PG for highest dose tested) Non-Small Cell Lung Cancer [18]: −60.8%; Selectivity: sensitivity of one of the seven non-small cell lung cancer cell lines relative to average sensitivity of the fifty-five cell lines ([18]; at GI50, TGI and/or LC50): ~100 times more sensitive to compound 55 than the; Activity (Average PG for highest dose tested) Prostate Cancer [19]: −31.0%

Q: With `COC(=O)c1nc(-c2ccc3c(n2)C(=O)C(NC(C)=O)=CC3=O)c2[nH]c3ccccc3c2c1C` [Compound 1, 7-N-Acetyllavendamycin Methyl Ester] as the compound, how does the “Number Dead Number Treated” value ([20]; 10 Mg/Kg/Day IP in three doses per day for 7 days) read?
A: Its value is 0/7.

Q: What about the “Number Dead Number Treated” value ([20]; 30 Mg/Kg/Day IP in three doses per day for 7 days) of the same compound?
A: Its value is 0/7.

Q: What about the “Number Dead Number Treated” value ([20]; 100 Mg/Kg/Day IP in three doses per day for 7 days) of the same compound?
A: Its value is 0/7.

Q: And the “toxicity in tumor-bearing nude mice (in words)” value ([20]; mouse, in vivo)?
A: The value was “little or no toxicity”.

Q: And the “tumor growth inhibition in vivo (in words)” value ([20]; summary of Table X)?
A: Its value is “excellent tumor growth inhibition”.

Q: What about the “Activity (Average PG for highest dose tested) Melanoma” value [2] of the same compound?
A: The value was “+80.3%”.

Q: And the “Activity (Average PG for highest dose tested) CNS Cancer” value [3]?
A: The value was “+60.2%”.

Q: What about the “Activity (Average PG for highest dose tested) Leukemia” value [4] of the same compound?
A: Its value is “+36.3%”.

Q: And the “Activity (Average PG for highest dose tested) Renal Cancer” value [5]?
A: The value was “+63.0%”.

Q: And the “Activity (Average PG for highest dose tested) Ovarian Cancer” value [6]?
A: The value was “+70.0%”.

Q: What about the “solubility in vehicle (in words)” value [21] of the same compound?
A: The value was “poorly soluble”.

Q: What about the CC50 [9, 24] of the same compound?
A: Its CC50 is > 33 µM.

Q: What about the CC50 ([9]; read-out: LC50 3LL, Table VIII) of the same compound?
A: Its CC50 is < 33 µM.

Q: And the CC50 [9, 25]?
A: The CC50 was > 33 µM.

Q: And the “Activity (Average PG for highest dose tested) Colon Cancer” value [10]?
A: The value was “+80.0%”.

Q: And the CC50 ([11]; 120 h, read-out: LC50 H/1.2)?
A: The CC50 was 0.7 µM.

Q: What about the CC50 ([11]; read-out: LC50 H/1.2) of the same compound?
A: Its CC50 is 0.7 µM.

Q: What about the “adverse effect of administration as measured by weight loss (in words)” value [22] of the same compound?
A: Its value is “did not. appear to be adversely affected”.

Q: What about the “selective toxicity against ras^K oncogene bearing tumor cells as compared to the normal, non-transformed cells” value ([13]; LC50 NRKE divided by LC50 K/1) of the same compound?
A: Its value is 9 fold.

Q: What about the CC50 ([13]; rat, 5 days) of the same compound?
A: The CC50 was 0.1 µM.

Q: What about the CC50 ([14]; 120 h, read-out: LC50 K/1) of the same compound?
A: The CC50 was 0.1 µM.

Q: What about the CC50 ([14]; read-out: LC50 K/1) of the same compound?
A: The CC50 was 0.1 µM.

Q: What about the “Activity (Average PG for highest dose tested) Breast Cancer” value [15] of the same compound?
A: Its value is “+47.9%”.

Q: What about the CC50 at 5 days ([16]; rat, LC50 NRKE) of the same compound?
A: Its CC50 at 5 days is 0.9 µM.

Q: And the “Activity (Average PG for highest dose tested) Non-Small Cell Lung Cancer” value [18]?
A: The value was “+42.6%”.

Q: And the “Activity (Average PG for highest dose tested) Prostate Cancer” value [19]?
A: Its value is “+89.5%”.

Q: Which “Differential Index 3LL” value [1] does the source give for `COC(=O)c1nc(-c2ccc3c(n2)C(=O)C(N)=C(Cl)C3=O)c2[nH]c3ccccc3c2c1C` [Compound 58, 6-Chlorolavendamycin methyl ester] here?
A: Its value is 0.54.

Q: What about the “Activity (Average PG for highest dose tested) Melanoma” value [2] of the same compound?
A: Its value is −86.1%.

Q: And the “Activity (Average PG for highest dose tested) CNS Cancer” value [3]?
A: Its value is −52.2%.

Q: What about the “Activity (Average PG for highest dose tested) Leukemia” value [4] of the same compound?
A: Its value is −14.6%.

Q: What about the “Activity (Average PG for highest dose tested) Renal Cancer” value [5] of the same compound?
A: The value was −73.7%.

Q: What about the “Activity (Average PG for highest dose tested) Ovarian Cancer” value [6] of the same compound?
A: The value was −39.3%.

Q: What about the “Differential Index H/1.2” value [8] of the same compound?
A: Its value is 1.07.

Q: And the “Total Score” value [23]?
A: The value was 14.

Q: What about the “Activity (Average PG for highest dose tested) Colon Cancer” value [10] of the same compound?
A: Its value is −84.9%.

Q: What about the “Differential Index N/4.2” value [12] of the same compound?
A: Its value is 1.09.

Q: And the “Differential Index K/1” value [13]?
A: The value was 1.40.

Q: What about the “Activity (Average PG for highest dose tested) Breast Cancer” value [15] of the same compound?
A: Its value is −58.7%.

Q: And the “Activity (Average PG for highest dose tested) Non-Small Cell Lung Cancer” value [18]?
A: The value was −69.3%.

Q: And the “Activity (Average PG for highest dose tested) Prostate Cancer” value [19]?
A: The value was −63.0%.
